Values of other authors as cited in patent US20070196413A1, “Surfactant enhanced quick release pesticide granules” (priority 2003, published 2007).
Where two headings read alike, the source gives them in different places.

## CNC(=O)CSP(=S)(OC)OC [Cygon, dimethoate]
Mixed in water of pH 9
  Time to lose 50 percent of pest control power: 48 min
pH of 6
  Time to lose 50 percent of pest control power: 720 min
